The values below are quoted from earlier work in patent publication US6063383A, “Pharmaceutical suppository composites for fever and influenza and method of producing the composites” (priority 1999, dated 2000).

Structures are written as SMILES.

The data set relates to small rats. The settings on record: rat, in vivo.

For `NCCS(=O)(=O)O` [taurine], the “spontaneous and pedaling activities” value is “can reduce the combined action of spontaneous activities and pedaling activities”.
